From PubChem BioAssay AID322 (DTP/NCI, 2004)
Where “and” joins values, the source holds several entries; their conditions need not be identical. Equal values may be shown once. Toxic doses and inconclusive results are not listed. Rule for the calls: active = survival T/C of 150% or more; inactive = T/C below 125% in these data.

Tested on: CD2F1 mice, P388/ADR leukemia ip, median survival T/C
Experiment: NCI In Vivo Anticancer Drug Screen. Data for tumor model P388 Leukemia resistant to Adriamycin; NSC 123127, Developed at Scr 08 (intraperitoneal) in CD2F1 (CDF1) mice
Details: endpoint: median survival time, higher = longer survival
Description: The antitumor activity of compounds was measured in mice bearing transplantable tumors. Survival or tumor size were measured and the results are expressed as the measurement made in the treated group (T) divided by the measurement made in the vehicle treated control group (C). The tumor model used in this assay is P388 Leukemia resistant to Adriamycin; NSC 123127, Developed at Scr 08 (intraperitoneal) in CD2F1 (CDF1) mice

[1] = dose: 22.0 micrograms/kg/injection, schedule: Q04DX003 (iv), vehicle: saline + alcohol
[2] = dose: 33.0 micrograms/kg/injection, schedule: Q04DX003 (iv), vehicle: saline + alcohol

Measured: T/C

BrC[P+](CBr)(CBr)CBr
active: dose: 666.67 mg/kg/injection, schedule: Q01DX005 (ip), vehicle: saline with Tween-80 166 % of control
inactive: dose: 50.0 mg/kg/injection, schedule: Q01DX005 (ip), vehicle: saline with Tween-80 109 % of control and 119 % of control | dose: 100.0 mg/kg/injection, schedule: Q01DX005 (ip), vehicle: saline with Tween-80 115 % of control | dose: 144.0 mg/kg/injection, schedule: Q01DX005 (ip), vehicle: saline with Tween-80 111 % of control | dose: 240.0 mg/kg/injection, schedule: Q01DX005 (ip), vehicle: saline with Tween-80 112 % of control

O=C1CN(CCN2CC(=O)N(CN3CCOCC3)C(=O)C2)CC(=O)N1CN1CCOCC1
inactive: dose: 12.5 mg/kg/injection, schedule: Q01DX005 (ip), vehicle: water 107 % of control | dose: 25.0 mg/kg/injection, schedule: Q01DX005 (ip), vehicle: water 105 % of control | dose: 50.0 mg/kg/injection, schedule: Q01DX005 (ip), vehicle: water 96 % of control | dose: 100.0 mg/kg/injection, schedule: Q01DX005 (ip), vehicle: water 100 % of control

COC(=O)C[C@](O)(CCCC(C)(C)O)C(=O)O[C@@H]1C(OC)=C[C@]23CCCN2CCc2cc4c(cc2[C@H]13)OCO4
inactive: dose: 0.87 mg/kg/injection, schedule: Q01DX009 (ip), vehicle: acid diluted with saline 104 % of control and 109 % of control | dose: 1.3 mg/kg/injection, schedule: Q01DX009 (ip), vehicle: acid diluted with saline 99 % of control

COc1cccc(Sc2ccc([N+](=O)[O-])c3no[n+]([O-])c23)c1
inactive: dose: 1.56 mg/kg/injection, schedule: Q01DX005 (ip), vehicle: saline with Tween-80 98 % of control | dose: 3.12 mg/kg/injection, schedule: Q01DX005 (ip), vehicle: saline with Tween-80 100 % of control | dose: 6.25 mg/kg/injection, schedule: Q01DX005 (ip), vehicle: saline with Tween-80 107 % of control | dose: 12.5 mg/kg/injection, schedule: Q01DX005 (ip), vehicle: saline with Tween-80 110 % of control | dose: 25.0 mg/kg/injection, schedule: Q01DX005 (ip), vehicle: saline with Tween-80 101 % of control

COc1cccc2c1C(=O)c1c(O)c3c(c(O)c1C2=O)C[C@@](O)(C(=O)CO)C[C@@H]3OC1CC(N2CCOCC2)C(O)C(C)O1 (some centres undefined)
inactive: [1] 107 % of control | [2] 105 % of control | dose: 50.0 micrograms/kg/injection, schedule: Q04DX003 (iv), vehicle: saline + alcohol 102 % of control | dose: 75.0 micrograms/kg/injection, schedule: Q04DX003 (iv), vehicle: saline + alcohol 101 % of control

COc1cc(C)c(C2NC(=O)c3ccccc3N2)cc1C (centres undefined)
inactive: dose: 50.0 mg/kg/injection, schedule: Q01DX005 (ip), vehicle: Klucel (hydroxypropylcellulose) (HPC) 109 % of control | dose: 100.0 mg/kg/injection, schedule: Q01DX005 (ip), vehicle: Klucel (hydroxypropylcellulose) (HPC) 116 % of control | dose: 200.0 mg/kg/injection, schedule: Q01DX005 (ip), vehicle: Klucel (hydroxypropylcellulose) (HPC) 113 % of control | dose: 400.0 mg/kg/injection, schedule: Q01DX005 (ip), vehicle: Klucel (hydroxypropylcellulose) (HPC) 124 % of control
active: dose: 288.0 mg/kg/injection, schedule: Q01DX005 (ip), vehicle: Klucel (hydroxypropylcellulose) (HPC) 158 % of control | dose: 480.0 mg/kg/injection, schedule: Q01DX005 (ip), vehicle: Klucel (hydroxypropylcellulose) (HPC) 153 % of control | dose: 800.0 mg/kg/injection, schedule: Q01DX005 (ip), vehicle: Klucel (hydroxypropylcellulose) (HPC) 155 % of control and 206 % of control | dose: 1333.0 mg/kg/injection, schedule: Q01DX005 (ip), vehicle: Klucel (hydroxypropylcellulose) (HPC) 207 % of control

COc1cccc2c1C(=O)c1c(O)c3c(c(O)c1C2=O)C[C@@](O)(C(=O)CO)C[C@@H]3OC1CC(N2CCOCC2C#N)C(O)C(C)O1 (some centres undefined)
inactive: dose: 15.0 micrograms/kg/injection, schedule: Q04DX003 (iv), vehicle: saline + alcohol 107 % of control | [1] 99 % of control | [2] 88 % of control
active: dose: 9.38 micrograms/kg/injection, schedule: Q04DX003 (ip), vehicle: saline with Tween-80 173 % of control and 175 % of control | dose: 37.5 micrograms/kg/injection, schedule: Q04DX003 (ip), vehicle: saline with Tween-80 160 % of control

Nc1ccc2c(c1)CN1C(=O)c3ccccc3C1=N2
active: dose: 33.0 mg/kg/injection, schedule: Q01DX009 (ip), vehicle: saline with Tween-80 215 % of control (2×) and 265 % of control | dose: 50.0 mg/kg/injection, schedule: Q01DX009 (ip), vehicle: saline with Tween-80 270 % of control and 278 % of control and 297 % of control | dose: 75.0 mg/kg/injection, schedule: Q01DX009 (ip), vehicle: saline with Tween-80 277 % of control and 297 % of control and 336 % of control
inactive: dose: 75.0 mg/kg/injection, schedule: Q01DX009 (oral), vehicle: saline with Tween-80 102 % of control | dose: 112.0 mg/kg/injection, schedule: Q01DX009 (ip), vehicle: saline with Tween-80 120 % of control | dose: 112.0 mg/kg/injection, schedule: Q01DX009 (oral), vehicle: saline with Tween-80 104 % of control | dose: 169.0 mg/kg/injection, schedule: Q01DX009 (ip), vehicle: saline with Tween-80 121 % of control | dose: 169.0 mg/kg/injection, schedule: Q01DX009 (oral), vehicle: saline with Tween-80 105 % of control | dose: 252.2 mg/kg/injection, schedule: Q01DX009 (oral), vehicle: saline with Tween-80 118 % of control | dose: 378.2 mg/kg/injection, schedule: Q01DX009 (oral), vehicle: saline with Tween-80 124 % of control

COc1cccc2c1C(CO)N1C(C#N)C3CC(C(=O)O)C(C1C2)N3C (centres undefined)
active: dose: 0.78 mg/kg/injection, schedule: Q01DX005 (ip), vehicle: suspension in saline 186 % of control | dose: 1.57 mg/kg/injection, schedule: Q01DX005 (ip), vehicle: suspension in saline 280 % of control | dose: 3.12 mg/kg/injection, schedule: Q01DX005 (ip), vehicle: saline 200 % of control | dose: 3.13 mg/kg/injection, schedule: Q01DX005 (ip), vehicle: suspension in saline 224 % of control | dose: 6.25 mg/kg/injection, schedule: Q01DX005 (ip), vehicle: saline 248 % of control | dose: 6.25 mg/kg/injection, schedule: Q01DX005 (ip), vehicle: suspension in saline 271 % of control | dose: 12.5 mg/kg/injection, schedule: Q01DX005 (ip), vehicle: saline 266 % of control | dose: 12.5 mg/kg/injection, schedule: Q01DX005 (ip), vehicle: suspension in saline 214 % of control | dose: 25.0 mg/kg/injection, schedule: Q01DX005 (ip), vehicle: saline 272 % of control | dose: 25.0 mg/kg/injection, schedule: Q01DX005 (ip), vehicle: suspension in saline 252 % of control

CC1(C)N=C(N)N=C(N)N1c1ccc(CCCCc2ccc(S(=O)(=O)F)cc2Cl)c(Cl)c1
inactive: dose: 18.0 mg/kg/injection, schedule: Q01DX009 (ip), vehicle: saline with Tween-80 87 % of control | dose: 27.0 mg/kg/injection, schedule: Q01DX009 (ip), vehicle: saline with Tween-80 89 % of control and 101 % of control | dose: 40.0 mg/kg/injection, schedule: Q01DX009 (ip), vehicle: saline with Tween-80 88 % of control and 102 % of control | dose: 60.0 mg/kg/injection, schedule: Q01DX009 (ip), vehicle: saline with Tween-80 112 % of control | dose: 90.0 mg/kg/injection, schedule: Q01DX009 (ip), vehicle: saline with Tween-80 91 % of control and 110 % of control | dose: 110.0 mg/kg/injection, schedule: Q01DX009 (ip), vehicle: saline with Tween-80 115 % of control

N[C@@H](Cc1c[nH]c2ccccc12)C(=O)Nc1nncs1
inactive: dose: 18.75 mg/kg/injection, schedule: Q01DX005 (ip), vehicle: saline 99 % of control | dose: 37.5 mg/kg/injection, schedule: Q01DX005 (ip), vehicle: saline 96 % of control | dose: 75.0 mg/kg/injection, schedule: Q01DX005 (ip), vehicle: saline 90 % of control | dose: 150.0 mg/kg/injection, schedule: Q01DX005 (ip), vehicle: saline 92 % of control | dose: 300.0 mg/kg/injection, schedule: Q01DX005 (ip), vehicle: saline 96 % of control

COc1cc(NCc2ccc3nc(N)nc(N)c3c2C)cc(OC)c1OC
inactive: dose: 18.0 mg/kg/injection, schedule: Q01DX009 (ip), vehicle: distilled water + Tween-80 112 % of control | dose: 27.0 mg/kg/injection, schedule: Q01DX009 (ip), vehicle: distilled water + Tween-80 118 % of control | dose: 110.0 mg/kg/injection, schedule: Q01DX009 (ip), vehicle: distilled water + Tween-80 94 % of control
active: dose: 40.0 mg/kg/injection, schedule: Q01DX009 (ip), vehicle: distilled water + Tween-80 156 % of control | dose: 60.0 mg/kg/injection, schedule: Q01DX009 (ip), vehicle: distilled water + Tween-80 184 % of control
